Patent US8044022B2, “Hyaluronic acid binding peptides enhance host defense against pathogenic bacteria” (priority 2005, dated 2011)

Columns and labels:
[1] = tested on: Wild Type GAS (HA encapsulated); experiment: Fluorometry binding of FITC-conjugated peptide to encapsulated GAS; set-up: species or system Group A Streptococcus
Method: (§1) Bacterial strains: GAS strain 950771 is a moderately encapsulated M3 clinical isolate from a child with post-varicella necrotizing fasciitis and sepsis, and an isogenic capsule deficient mutant, 188, derived from 950771. GAS were grown in Todd-Hewitt broth (Difco) to mid-exponential phase OD650 of 0.15 at 37° C. for all experiments. Commercially available trypticase-soy agar medium supplemented with 5% vol/vol sheep blood (BAP)(PML Microbiologicals, British Columbia, Canada) were used for all plate cultures. S. equi s(ATCC 53185) and P. multocida (ATCC 11039) were purchased from ATCC and cultured as recommended. Briefly, S. equi was cultured in Todd-Hewitt broth and S. uberis and P. multocida were cultured in Brain heart infusion (Difco) to OD 650 of 0.15 at 37° C. Quantitative cultures were performed in parallel with each experiment to verify the multiplicity of infection (MOI) of the inoculum.
(§2) Binding of HABP to HA and HA-encapsulated bacteria: To assess whether HABP are able to associate specifically with the GAS capsule, bacteria were cultured to mid-log phase, for maximal HA capsule expression, and incubated with either 10 μg/ml of FITC-conjugated HABP01 or SCRM, with purified HA at 1 mg/ml, as a positive control, or an isogenic mutant strain of GAS deficient in HA capsule, as a negative control. A GAS-specific antibody was used to control for the number of bacteria per well.

GAS [2] = experiment: Opsonophagocytic assay with human neutrophils; format: cell-based, Group A Streptococcus; settings: 50 μg/ml, 2 hours incubation with human neutrophils, 10% absorbed human serum
Method: Encapsulated GAS are resistant to killing by neutrophils in opsonophagocytic assays in the absence of antibodies that bind the bacterial surface. HABPs binding to the bacterial surface may facilitate neutrophil cytotoxicity. Opsonophagocytic assays were performed wherein GAS were incubated with 50 μg/ml of SCRM, HABP01 or HABP35 and mixed with human neutrophils in medium containing 10% absorbed human serum. Aliquots (25 μl) for quantitative culture were withdrawn immediately after mixing neutrophil with GAS and after 2 hr incubation at 37° C. The log increase or decrease in CFU's was calculated. After 2 hours of incubation, there was about a 1.5 log increase in CFU's for GAS treated with PBS or SCRM.

[3] = Fluorometry binding of FITC-conjugated peptide to purified HA in well; set-up: species or system rooster
Method: Lyophilized synthetic peptides were resuspended in PBS pH7.4 prior to use in either in vitro or in vivo experiments. Fluorescein conjugation of HABP01 and SCRM was performed using 5,6 carboxyfluorescein, succinimidyl ester (5,6 FAM) (Molecular Probes, Portland, Oreg.) as per manufacturer's instructions and separated on a Sephadex G-25 column (Amersham, Piscataway, N.J.). Purified, high molecular weight rooster comb HA (Sigma-Aldrich, St Louis, Mo.) was used as a positive control for BP binding.
as §2

Acapsular GAS = experiment: Fluorometry binding of FITC-conjugated peptide to capsule-deficient GAS; set-up: species or system Group A Streptococcus
Method: as §1, §2

S. aureus strain PS80 = experiment: Mouse model of S. aureus surgical wound infection; format: in vivo, C57BL6 mice; settings: 100 μg into wound at time of challenge with 10^2 CFU; 3 days later
Method: Bacterial strains. S. aureus strain PS80 (serotype 8) was obtained from the American Type Culture collection (#27700) and is a potent inducer of intraabdominal abscess formation. S. aureus COL is a methicillin resistant strain that produces a serotype 5 capsule. Staphylococci were cultivated for 24 h at 37° C. on Columbia agar (Difco Laboratories, Detroit, Mich.) supplemented with 2% NaCl.
Mouse model of S. aureus wound infection. Mice (C57BL6, male, 6-8 wk old) were obtained from Jackson Laboratories (Bar Harbor, Me.). Groups of mice (N=4/group/experiment) were anesthetized with 100 mg/kg ketamine and 10 mg/kg xylazine, their right thighs were shaved, and the surgical area was disinfected with iodine and 70% ethanol. An incision was made in the skin to expose the thigh muscle, and a 1-cm incision was made with a scalpel into the thigh muscle to the depth of the bone. The muscle was then closed with one 4-0 silk suture, and 10 μl of a S. aureus suspension ranging in dose from 10^2 to 10^4 CFU was introduced into the incision under the suture. The skin was closed with four additional Prolene sutures. The mice were euthanized at 3 days post-surgery. The wounded muscle tissue was excised, weighed (˜0.08 g), and homogenized in 1 ml of tryptic soy broth. Serial dilutions of the homogenates were plated in duplicate and results were expressed as CFU/g tissue. Peptides were administered to animals in two ways. For most experiments, HABPs were solubilized in PBS and administered with a pipet into the wound in a 10 μl volume following challenge with bacteria. A 100 μg dose was used for most experiments. For therapeutic studies, peptide was administered via a 1 ml tuberculin syringe fitted with a 25 gauge needle in a 0.25 ml volume injected into the thigh muscle containing the wound distal from the incision site.
Gross pathology and histologic analysis of host response. […] Histological examination of these wounds confirmed these findings. Muscle tissue was harvested from mice at designated intervals post-surgery, fixed in 10% buffered formalin, and mounted in paraffin; 5 to 6-μm sections were cut and stained with hematoxylin and eosin for microscopic examination. […] The cellular infiltrate was primarily comprised of PMNs and fibrin.
Statistical analyses. All animal experiments were performed at least two times and the data pooled. Comparison of S. aureus CFU/g tissue was made by the Welch modification of the unpaired Student t test (InStat, GraphPad Software, San Diego, Calif.).

GAS [4] = experiment: Mouse soft tissue invasive infection model; set-up: species or system CBA/J mice; settings: in vivo
Method: Mouse soft tissue invasive infection model: Female 4-6-week-old CBA/J mice (Jackson Laboratory, […].) were inoculated with GAS. Briefly, mice were anesthetized and the hair was shaved off the right flank. Approximately 1.5×10^5 cfu of GAS from an early log-phase broth culture were suspended in 50 μl of sterile PBS or HABP and inoculated just under the surface of the skin with a 27-guage needle. The animals were observed twice daily for 3-5 days. Serial tail vein bleeds were performed daily and 50 μl of blood was inoculated on BAP for enumeration of viable bacterial CFU and incubated at 37° C. for 24 hours. Animals surviving the experiment or appearing moribund at any time were euthanized and the spleen removed using aseptic technique. The spleen was homogenized in 1 ml of THB and 100 μl of homogenate plated on BAP. In some experiments animals were euthanized at various time points during infection and tissue sections from the inoculation site were prepared for histopathological examination.
HABP-treated mice repeatedly indicated a 24-hour to 48-hour delay in dissemination of bacteria from the inoculation site compared to controls. […] The delayed dissemination correlated with a reduced mortality 24 hours after infection, but once dissemination occurred, HABP-treated mice died rapidly. Histopathologic analysis of the infection site indicated typical lateral GAS dissemination. […]

[5] = fluorometry, HABP35 also confocal microscopy, data not shown

Sequence: HKSVSRHTSMRHSTM [SCRM, reference compound]
- binding to encapsulated GAS (in words) [1, 5]: did not bind
- Relative binding ([1]; substrate in well: Wild Type GAS, 10 μg/ml FITC-conjugated peptide): 1550 ± 30 relative fluorescent units
- log increase in CFU's (GAS [2]): ~1.5 log
- binding to purified HA (in words) ([3]; fluorometry): did not bind
- Relative binding ([3]; substrate in well: HA (1 mg/ml), 10 μg/ml FITC-conjugated peptide): 1520 ± 20 relative fluorescent units
- binding to unencapsulated GAS (in words) (Acapsular GAS; [5]): did not bind
- Relative binding (Acapsular GAS; substrate in well: Acapsular GAS, 10 μg/ml FITC-conjugated peptide): 1490 ± 40 relative fluorescent units
- bacterial burden at the wound site compared with PBS (S. aureus strain PS80): did not have this effect
- PMNs at the infection site (confocal microscopy of tissue sections) (GAS [4]): numerous polymorphonuclear leukocytes
